Measured values taken from ChEMBL document CHEMBL3526115, “Differences in the pharmacokinetics of 4-amino-3-chlorophenyl hydrogen sulfate, a metabolite of resatorvid, in rats and dogs” (Drug Metab Dispos, 2012).

What was measured:
[1] = Elimination half life in iv dosed rat plasma; format: ADME, organism-based; details: read-out: beta t1/2 (converted)
[2] = Elimination half life in iv dosed dog plasma; format: ADME, organism-based, Canis lupus familiaris; details: read-out: beta t1/2 (converted)
[3] = Half life in dog plasma at 5 mg/kg; format: ADME, organism-based, Canis lupus familiaris; parameters: dose 5 mg/kg
[4] = Half life in human plasma at 5 mg/kg; format: ADME, organism-based; parameters: dose 5 mg/kg
[5] = Half life in rat plasma at 5 mg/kg; format: ADME, organism-based; parameters: dose 5 mg/kg
[6] = Dissociation constant, pKa of the compound; format: physicochemical

Row | half-life [1] | half-life [2] | pKa [6] | Structure (SMILES) | half-life [3] | half-life [4] | half-life [5]
1 | 5.6 h | 158 h | – | CCOC(=O)C1=CCCC[C@H]1S(=O)(=O)N[14c]1[14cH][14cH][14c](F)[14cH][14c]1Cl | – | – | –
2 | – | – | – | O=C(O)COc1ccc(Cl)cc1Cl [2,4-DICHLOROPHENOXYACETIC ACID] | 92 h | 12 h | < 1 h
3 | – | – | – | Cc1cc(Cl)ccc1OCC(=O)O [METAXON] | 63 h | 11 h | 6 h
4 | – | – | 2.4 | Nc1ccc(OS(=O)(=O)O)cc1Cl | – | – | –
